The source of these data is patent US8809052B2, “Methods of generating mature oligodendrocytes” (Yeda Research and Development Co. Ltd., priority 2006, dated 2014).

Entries after “also recorded” stand apart in the source; their conditions may differ.

The subject of one test is Shiverer mice. As to the kind of experiment: Transplantation of huES-NSc into brain of shiverer mice, MBP-stained fibers. The class given is in vivo, mouse. The note with it: FIG. 4e. The source says: Animal model—Shiverer mice have an extensive deletion in the MBP gene (Roach et al., 1985) and in a homozygous shi−/− animal there is no MBP immunoreactivity in the CNS. The appearance of fibers showing immunostaining for MBP following transplantation of oligodendrocyte precursors therefore indicates, that the transplanted cells have the capacity to myelinate endogenous neurons (Lachapelle et al., 1983).
Transplantation of huES-NSc in Shiverer mice—For transplantation, ES cell-derived dissociated neuroglial sphere cells (huEs-NSc) were prepared as described in Example 3. The culture steps from step T to step D3 that were followed, are outlined in Table 1 condition 3. in Example 1. However, Step D3 was for 9 days, with and without 50 ng/ml noggin. Growth factors were then removed for one day, during which 1 μg/ml laminin, and 50 μg/m Vit C were added to the N2/B27 medium (step F2, as described in Example 1). The culture was thereafter subjected to the short trypsin treatment (see Example 1) and the cells were injected intraventricularly to homozygous shiverer mice. One day old shi/shi pups were anesthetized by brief hypothermia and received an injection of 10^5 cells in 2 μl, over a period of 3 minutes, into the brain third ventricule, using a Hamilton 10 μl syringe. The pups were then warmed and returned to their mothers. […]

The test system of test [1] is human ES cell-derived neuroglial sphere cells. As to the kind of experiment: Count of O4+ cells with oligodendrocyte branching morphology per field after terminal differentiation. It counts as cell-based. As to the method:
Differentiation of ES cells into oligodendrocytes—The following steps were taken for initiating ES cell differentiation:
1. Step T: Transition step—Collagenase detached huESC colonies pooled from six 6-well plates, into a 15 ml tube supplemented with ES1 medium, were let to sediment by gravity for about 30 minutes in the incubator (37° C.). Colonies were then washed once in ES1 medium and then transferred to 12×6 cm tissue culture plates in 5 ml transition medium (T-medium) consisting of 50% (v/v) ES1 medium, and 50% (v/v) of ITTSPP/B27 medium. Growth factors (GF), recombinant human EGF (20 ng/ml, R&D Systems, Minneapolis, Minn.) and recombinant human bFGF (4 ng/ml, Biotest, Dreieich, Germany) were added to the transition medium. Thereafter (1 d), some cells adhered but the bulk of huESC colonies and aggregates remained in suspension and were transferred to 12 bacterial (non-adherent) plates in the same transition medium and cultured for 1 day. Then, 10 μM retinoic acid (RA, Sigma-Aldrich, St. Lewis, Mo.) was added to the T-medium and cells were cultured for an additional day.
2. Step R: Retinoic acid treatment—The medium was switched to ITTSPP/B27 containing 20 ng/ml of EGF and 10 μM RA. Medium was changed every day for 7 days, and colonies were concentrated by gravity, without centrifugation.
3. Step S: Suspension culture—During this step, which allows for ripening of neurospheres (NS), the aggregates were cultured in ITTSPP/B27 medium supplemented with 20 ng/ml EGF, for 18 days, changing medium every two days. The ITTSPP/B27 medium was, or was not supplemented with 50 ng/ml Noggin-Fc chimera (R&D systems, Minneapolis, Minn.), in order to examine the effect of noggin.
4. Steps M1,2: Adherence to matrigel-coated plates—Spheres or aggregates from one original 6-well plate were distributed to another 6-well plate which had been coated for 1.5 hours at room temperature with matrigel (Matrigel low growth factor concentration; BD Biosciences, Clontech, Palo Alto, Calif., diluted 1:30 in DMEM/F12 Pen-Strep). After one day, the unbound aggregates were discarded and fresh ITTSPP/B27 medium, supplemented with 20 ng/ml EGF, was added. Medium was changed every 3-4 days.
5. Passage with trypsin—Following 1-2 weeks, aggregates were detached and partially dissociated by a short treatment with trypsin 0.05% (2-3 min, 37° C.; Biological industries, Beit Haemek, Israel, diluted in PBS, —Ca and —Mg). Trypsin was rapidly neutralized by addition of 4 volumes of BSA (2 mg/ml; Sigma for Tissue culture) in ITTSPP/B27, and centrifugation at (200 rpm, 10 min), followed by another wash with BSA. This treatment dissociates the aggregates to small clusters that are seeded again onto matrigel-coated plates (at dilution 1:3), in ITTSPP/B27, 20 ng/ml EGF, for another 1-2 weeks (step M2).
(§1) 6. Steps F1,2: Terminal differentiation on matrigel—In step F1 (3 days), the medium was changed to ITTSPP/B27 containing EGF 5 ng/ml and bFGF 5 ng/ml, together with mouse laminin 1 μg/ml, and Vit C (50 μg/ml; Sigma-Aldrich, St. Lewis, Mo.). Some of the wells were treated with noggin (50 ng/ml Noggin-Fc chimera; R&D systems, Minneapolis, Minn.), 2 days after seeding, and noggin was continued thereafter. In step F2, cells were cultured 6 or 10 days in the same medium without growth factor, but with or without noggin. The medium was changed every two to four days.
Immunostaining—Cells were fixed in 12 or 24-well tissue culture plastic plates with 4% paraformaldehyde (PFA), washed with PBS, and kept at 4° C. before staining. Non-specific staining was blocked with normal goat serum (5% w/v in PBS) for 30 min at RT. Thereafter primary mouse monoclonal (mMc) antibodies, diluted in 1% goat serum, were administered. Antibodies used were: anti PDGFR (mMc IgG1, Santa Cruz, 1:500), O4 (mMc IgM, R&D Systems, 1:1000), O1 (mMc IgM, received from Dr Sheila Harroch, Pasteur Institute, Paris), anti tubulin-βIII (mMc IgG1, Cowance, 1:1000), and antibody 1281 (human nuclei antigen HNA, Chemicon). […]

Test [2] deals with human ES cell-derived oligodendrocytes. As to the kind of experiment: Number of MBP+ oligodendrocytes by immunostaining. It counts as cell-based. The settings on record: step F2, 10 days without GF, noggin vs without noggin; FIG. 2g. As for the experimental part: as §1
Immunostaining—Cells were fixed in 12 or 24-well tissue culture plastic plates with 4% paraformaldehyde (PFA), washed with PBS, and kept at 4° C. before staining. Non-specific staining was blocked with normal goat serum (5% w/v in PBS) for 30 min at RT. Thereafter primary mouse monoclonal (mMc) antibodies, diluted in 1% goat serum, were administered. […] An Olympus IX-70 FLA microscope with a DVC-1310C digital camera (DVC, Austin, Tex.) was used and images were processed with Photoshop and analyzed with Image-ProPlus software (Media Cybernetics, Silver Spring, Md.), in order to measure Integrated Optic Density (IOD) of color-specific pixels and MBP fiber length. […]

For the next test, the system named is shiverer brain slices. As to the kind of experiment: Ex vivo transplantation of human ES-NSc on shiverer brain slices (organotypic cultures), MBP staining and electron microscopy. The class given is cell-based, mouse. As to the method: Immunostaining—Cells were fixed in 12 or 24-well tissue culture plastic plates with 4% paraformaldehyde (PFA), washed with PBS, and kept at 4° C. before staining. Non-specific staining was blocked with normal goat serum (5% w/v in PBS) for 30 min at RT. Thereafter primary mouse monoclonal (mMc) antibodies, diluted in 1% goat serum, were administered. Antibodies used were: anti PDGFR (mMc IgG1, Santa Cruz, 1:500), O4 (mMc IgM, R&D Systems, 1:1000), O1 (mMc IgM, received from Dr Sheila Harroch, Pasteur Institute, Paris), anti tubulin-βIII (mMc IgG1, Cowance, 1:1000), and antibody 1281 (human nuclei antigen HNA, Chemicon). Following overnight exposure to the appropriate antibody (4° C.), biotinylated goat anti-mouse IgG1 (Southern Biotech, 1:50) was added for 30 minutes, followed by Cy3-tagged streptavidine (ABC laboratories, 1:2000). […] Staining for MBP was with rat monoclonal anti MBP (ab7349, AbCam, 1/500), and Cy3-conjugated Affipure goat anti rat IgG (Jackson laboratories, 1:500). […] An Olympus IX-70 FLA microscope with a DVC-1310C digital camera (DVC, Austin, Tex.) was used and images were processed with Photoshop and analyzed with Image-ProPlus software (Media Cybernetics, Silver Spring, Md.), in order to measure Integrated Optic Density (IOD) of color-specific pixels and MBP fiber length. […]

For a further test, the system named is human ES cells. Nature of the test: RT-PCR gene expression at the different culture steps. It counts as cell-based. As for the experimental part:
RT-PCR—total RNA was isolated from cultures at different culture steps using Tri-Reagent (Molecular Research Center, Cincinnati, Ohio) and RT-PCR was carried out by standard technology as previously described (Slutsky et al., 2003). Expression was checked for the following genes, as described in table 2 below, including the expression of the control gene G3PDH. Also provided in the table are primer sequences used for each gene. For G3PDH, primers from Clontech (Palo Alto, Calif., catalog #9805-1) were used.

Setting [3] is: Dissociated cells, Passage 2, listed as noggin.
[4] abbreviates: On Matrigel, noggin added at Step S.
The mark [5] stands for this setting: On Matrigel, noggin added at Steps F and S.

Consider Noggin, for which the “number of MBP fibers/field” value with Shiverer mice (cells cultured with vs without noggin) is “increased”. The “increase in the number of MBP fibers” value in the test with Shiverer mice (huES-NSc treated 9 days with 50 ng/ml noggin at step D3, injected into third ventricule, four weeks) was 3.5-4 fold. Besides, in test [1] (Dissociated cells, passage 2, noggin added at the early step S), the “oligodendrocytes formed in the differentiation step” value is given as 1.77±1.2. Also, the “Fold (with vs without noggin), number of oligodendrocytes per field” value was determined as 9.1 in test [1] (Dissociated cells, Passage 2); 9 in test [1] (setting [3]); 7.1 in test [1] (Dissociated cells, Passage 3); 6.0 in test [1] (Dissociated cells, Passage 4); 8.7 in test [1] (On Matrigel, noggin added at Step F); 2.2 in test [1] (setting [4]). For the same substance, in test [1] (setting [5]), the “Fold (with vs without noggin), number of oligodendrocytes per field” value is 4.4. For the same substance, the “Number of oligodendrocytes per field” value came out at 5.20 ± 1.7 in test [1] (Dissociated cells, Passage 2); 5.20±1.7 in test [1] (setting [3]); 10.14 ± 5.2 in test [1] (Dissociated cells, Passage 3); 12.05 ± 3.6 in test [1] (Dissociated cells, Passage 4); 5.76 ± 4.2 in test [1] (On Matrigel, noggin 50 ng/ml added at Step F, 6 days without growth factors, fields of 0.4 mm^2); 1.50 ± 1.4 in test [1] (setting [4]). Further, the “Number of oligodendrocytes per field” value in test [1] (setting [5]) was 2.95 ± 1.7. In addition, the “O4+ cells with ramified oligodendrocyte shape as share of total cells” value in test [1] (Dissociated cells, Passage 2) is recorded as “about 5%”. Besides, in test [1] (Dissociated cells, Passage 2), the “total O4+ cells as share of total cells” value is recorded as “about 15%”. In test [1] (after sub-passages (passages 3 and 4), noggin during steps D and F), the “proportion of oligodendrocytes of the total cells in the culture” value came to 43%. Further, the “number of well-developed oligodendrocytes displaying ramified branches” value in test [1] (on matrigel, 10 days without growth factors, FIGS. 1g-h) is “strong effect”. In test [2], the “number of MBP+ oligodendrocytes” value was “very significant stimulation; also recorded: strong stimulation”. Moreover, the “myelin by electron microscopy” value with shiverer brain slices (brain tissue transplanted with noggin-treated huES-NS cells, FIG. 5e,f) is “compacted myelin sheaths, with major dense lines, were formed”. Further, the “overall myelinating capacity (extent of MBP staining and mean length of MBP+ fibers)” value in the test on shiverer brain slices (noggin-treated vs untreated huES-NS cells, two weeks after implantation, FIG. 5g) was “markedly enhanced”. Further, the “expression of Oct4 and Rex1” value with human ES cells (after step S with noggin) is listed as “down-regulated”. For the same substance, in the test with human ES cells (after step S with noggin), the “expression of myelin proteolipid protein (PLP)” value is reported as “increasing”. Further, the “expression of PDGF-Rα” value with human ES cells (after step S with noggin, FIG. 1a lane 3) is given as “decreased”. The “expression of Nkx2.2 and Sox10” value in the test on human ES cells (after step S, noggin 50 ng/ml, FIG. 1a lane 3) is reported as “seen only when noggin was added”.
In the case of “bFGF: recombinant human basic fibroblast growth factor”, the “effect of addition at step S (ripening of neurospheres)” value in test [1] (bFGF 20 ng/ml at step S) was “not found to be helpful”. In addition, in test [1] (bFGF alternating with EGF during step S (without noggin), step F with noggin), the “oligodendrocytes formed in the final differentiation step F” value is listed as 0.66±0.5. Moreover, the “expansion of dissociated precursor cells” value in test [1] (combination of bFGF and EGF at step D2) is reported as “better than EGF alone”. The “induction of Nkx2.2” value in the test on human ES cells (protocol based on bFGF treatment with neither RA nor noggin, FIG. 1b) is “failed to induce Nkx2.2”.
